Tests used:
Format in all cases: in vivo
[1] = tested on: slender amaranth (Amaranthus viridis L.); experiment: Test Example 2: herbicidal effect by soil application to upland field; conditions: soil surface spray, upland field soil, 1,000 g active ingredient per hectare, 21st day after application
Summary of the method: (§1)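 Pre-emergence soil test: seeds sown in pots of field soil, then wettable-powder formulation sprayed on soil surface at 1,000 g active ingredient per hectare in 1,000 L water per hectare. Plants grown in greenhouse; herbicidal effect scored on a standard scale at day 21.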

[2] = tested on: green foxtail (Setaria viridis (L.) P. Beauv.); experiment: as above; conditions: soil surface spray, upland field soil, 1,000 g active ingredient per hectare, 21st day after application
Summary of the method: as §1

[3] = tested on: barnyardgrass (Echinochloa crus-galli (L.) P. Beauv. var. crus-galli); experiment: as above; conditions: soil surface spray, upland field soil, 1,000 g active ingredient per hectare, 21st day after application
Summary of the method: as §1

[4] = tested on: velvetleaf (Abutilon theophrasti medicus); experiment: as above; conditions: soil surface spray, upland field soil, 1,000 g active ingredient per hectare, 21st day after application
Summary of the method: as §1

[5] = tested on: Japanese bulrush (Scirpus juncoides Roxb.); experiment: Test Example 1: herbicidal effect by soil application to paddy field; conditions: paddy field soil application; active ingredient 1,000 g per 1 hectare; wettable powder added dropwise to water surface the day after sowing; examined on the 21st day after application
Summary of the method: (§2)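 Under greenhouse conditions, seeds sown on puddled paddy soil in 100 cm2 pots under 3 cm of standing water received the test compound; injury was assessed with a standard scoring scheme three weeks (day 21) after treatment.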

[6] = tested on: heartshape false pickerelweed (Monochoria vaginalis (Burm.f.) C.Presl); experiment: as above; conditions: paddy field soil application; active ingredient 1,000 g per 1 hectare; wettable powder added dropwise to water surface the day after sowing; examined on the 21st day after application
Summary of the method: as §2

[7] = tested on: early watergrass (Echinochloa oryzicola Vasing); experiment: as above; conditions: paddy field soil application; active ingredient 1,000 g per 1 hectare; wettable powder added dropwise to water surface the day after sowing; examined on the 21st day after application
Summary of the method: as §2

[8] = tested on: slender amaranth (Amaranthus viridis L.); experiment: Test Example 3: herbicidal effect by application to upland field (foliage treatment); conditions: foliage treatment, 1,000 g active ingredient per 1 hectare, 14th day after application, greenhouse
Summary of the method: (§3)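 Effect scores come from a standard grading 14 days after plants, grown from seed for two weeks in field soil in a greenhouse, were sprayed over the top with wettable powder in water at 1,000 g active ingredient per hectare.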

[9] = tested on: green foxtail (Setaria viridis (L.) P. Beauv.); experiment: as above; conditions: foliage treatment, 1,000 g active ingredient per 1 hectare, 14th day after application, greenhouse
Summary of the method: as §3

[10] = tested on: barnyardgrass (Echinochloa crus-galli (L.) P. Beauv. var. crus-galli); experiment: as above; conditions: foliage treatment, 1,000 g active ingredient per 1 hectare, 14th day after application, greenhouse
Summary of the method: as §3

[11] = tested on: velvetleaf (Abutilon theophrasti medicus); experiment: as above; conditions: foliage treatment, 1,000 g active ingredient per 1 hectare, 14th day after application, greenhouse
Summary of the method: as §3

Structure (SMILES)	herbicidal effect (index), Slender Amaranth [1]	herbicidal effect (index), Green Foxtail [2]	herbicidal effect (index), Barnyardgrass [3]	herbicidal effect (index), Velvetleaf [4]	herbicidal effect, Scirpus juncoides Roxb. [5]	herbicidal effect, Monochoria vaginalis (Burm. f.) C. Presl [6]	herbicidal effect, Echinochloa oryzicola Vasing [7]	herbicidal effect, Slender Amaranth [8]	herbicidal effect, Green Foxtail [9]	herbicidal effect, Barnyardgrass [10]	herbicidal effect, Velvetleaf [11]
O=C(C1=C(O)C2CCC(C2)C1=O)c1ccc(C(F)(F)F)n(CC2CCCO2)c1=O (stereo not shown) [III-38]	5 (90% or more of herbicidal effect and crop phytotoxicity)	3 (50 to less than 70% of herbicidal effect and crop phytotoxicity)	5 (90% or more of herbicidal effect and crop phytotoxicity)	5 (90% or more of herbicidal effect and crop phytotoxicity)	5 (90% or more of herbicidal effect and crop phytotoxicity)	5 (90% or more of herbicidal effect and crop phytotoxicity)	5 (90% or more of herbicidal effect and crop phytotoxicity)	5 (90% or more of herbicidal effect and crop phytotoxicity)	4 (70 to less than 90% of herbicidal effect and crop phytotoxicity)	5 (90% or more of herbicidal effect and crop phytotoxicity)	5 (90% or more of herbicidal effect and crop phytotoxicity)
Cn1ncc(C(=O)c2ccc(C(F)(F)F)n(C)c2=O)c1O [IV-1, 4-[1,2-dihydro-1-methyl-2-oxo-6-(trifluoromethyl)pyridine-3-carbonyl]-5-hydroxy-1-methyl-1H-pyrazole]	5 (90% or more of herbicidal effect and crop phytotoxicity)	4 (70 to less than 90% of herbicidal effect and crop phytotoxicity)	5 (90% or more of herbicidal effect and crop phytotoxicity)	5 (90% or more of herbicidal effect and crop phytotoxicity)	5 (90% or more of herbicidal effect and crop phytotoxicity)	5 (90% or more of herbicidal effect and crop phytotoxicity)	5 (90% or more of herbicidal effect and crop phytotoxicity)	5 (90% or more of herbicidal effect and crop phytotoxicity)	4 (70 to less than 90% of herbicidal effect and crop phytotoxicity)	4 (70 to less than 90% of herbicidal effect and crop phytotoxicity)	5 (90% or more of herbicidal effect and crop phytotoxicity)
CCn1c(C(F)(F)F)ccc(C(=O)c2cnn(C)c2O)c1=O [IV-2]	5 (90% or more of herbicidal effect and crop phytotoxicity)	5 (90% or more of herbicidal effect and crop phytotoxicity)	5 (90% or more of herbicidal effect and crop phytotoxicity)	5 (90% or more of herbicidal effect and crop phytotoxicity)	5 (90% or more of herbicidal effect and crop phytotoxicity)	5 (90% or more of herbicidal effect and crop phytotoxicity)	5 (90% or more of herbicidal effect and crop phytotoxicity)	5 (90% or more of herbicidal effect and crop phytotoxicity)	5 (90% or more of herbicidal effect and crop phytotoxicity)	5 (90% or more of herbicidal effect and crop phytotoxicity)	5 (90% or more of herbicidal effect and crop phytotoxicity)
CCCn1c(C(F)(F)F)ccc(C(=O)c2cnn(C)c2O)c1=O [IV-3]	5 (90% or more of herbicidal effect and crop phytotoxicity)	5 (90% or more of herbicidal effect and crop phytotoxicity)	5 (90% or more of herbicidal effect and crop phytotoxicity)	5 (90% or more of herbicidal effect and crop phytotoxicity)	5 (90% or more of herbicidal effect and crop phytotoxicity)	5 (90% or more of herbicidal effect and crop phytotoxicity)	5 (90% or more of herbicidal effect and crop phytotoxicity)	5 (90% or more of herbicidal effect and crop phytotoxicity)	5 (90% or more of herbicidal effect and crop phytotoxicity)	5 (90% or more of herbicidal effect and crop phytotoxicity)	5 (90% or more of herbicidal effect and crop phytotoxicity)
CCCn1c(C(F)(F)F)ccc(C(=O)c2cnn(C)c2OC(=O)c2ccccc2)c1=O [IV-4]	5 (90% or more of herbicidal effect and crop phytotoxicity)	5 (90% or more of herbicidal effect and crop phytotoxicity)	5 (90% or more of herbicidal effect and crop phytotoxicity)	5 (90% or more of herbicidal effect and crop phytotoxicity)	5 (90% or more of herbicidal effect and crop phytotoxicity)	5 (90% or more of herbicidal effect and crop phytotoxicity)	5 (90% or more of herbicidal effect and crop phytotoxicity)	5 (90% or more of herbicidal effect and crop phytotoxicity)	4 (70 to less than 90% of herbicidal effect and crop phytotoxicity)	5 (90% or more of herbicidal effect and crop phytotoxicity)	5 (90% or more of herbicidal effect and crop phytotoxicity)
CCCCn1c(C(F)(F)F)ccc(C(=O)c2cnn(C)c2O)c1=O [IV-6]	5 (90% or more of herbicidal effect and crop phytotoxicity)	5 (90% or more of herbicidal effect and crop phytotoxicity)	5 (90% or more of herbicidal effect and crop phytotoxicity)	5 (90% or more of herbicidal effect and crop phytotoxicity)	5 (90% or more of herbicidal effect and crop phytotoxicity)	5 (90% or more of herbicidal effect and crop phytotoxicity)	5 (90% or more of herbicidal effect and crop phytotoxicity)	5 (90% or more of herbicidal effect and crop phytotoxicity)	5 (90% or more of herbicidal effect and crop phytotoxicity)	5 (90% or more of herbicidal effect and crop phytotoxicity)	5 (90% or more of herbicidal effect and crop phytotoxicity)
CCC(C)n1c(C(F)(F)F)ccc(C(=O)c2cnn(C)c2O)c1=O (stereo not shown) [IV-8]	5 (90% or more of herbicidal effect and crop phytotoxicity)	5 (90% or more of herbicidal effect and crop phytotoxicity)	5 (90% or more of herbicidal effect and crop phytotoxicity)	5 (90% or more of herbicidal effect and crop phytotoxicity)	5 (90% or more of herbicidal effect and crop phytotoxicity)	5 (90% or more of herbicidal effect and crop phytotoxicity)	5 (90% or more of herbicidal effect and crop phytotoxicity)	5 (90% or more of herbicidal effect and crop phytotoxicity)	4 (70 to less than 90% of herbicidal effect and crop phytotoxicity)	5 (90% or more of herbicidal effect and crop phytotoxicity)	5 (90% or more of herbicidal effect and crop phytotoxicity)
CCCS(=O)(=O)Oc1c(C(=O)c2ccc(C(F)(F)F)n(CC(F)(F)F)c2=O)cnn1C [IV-10]	5 (90% or more of herbicidal effect and crop phytotoxicity)	5 (90% or more of herbicidal effect and crop phytotoxicity)	5 (90% or more of herbicidal effect and crop phytotoxicity)	5 (90% or more of herbicidal effect and crop phytotoxicity)	5 (90% or more of herbicidal effect and crop phytotoxicity)	5 (90% or more of herbicidal effect and crop phytotoxicity)	5 (90% or more of herbicidal effect and crop phytotoxicity)	5 (90% or more of herbicidal effect and crop phytotoxicity)	4 (70 to less than 90% of herbicidal effect and crop phytotoxicity)	5 (90% or more of herbicidal effect and crop phytotoxicity)	4 (70 to less than 90% of herbicidal effect and crop phytotoxicity)
